Data on 14 compounds can be found in ChEMBL document CHEMBL1201862, “PubChem BioAssay data set” (2004).

Calls of active or inactive are those of the source.

Usually IC50 stands for the concentration that gives 50% inhibition. The term AC50 denotes the concentration at which the activity in the assay is half-maximal. As a reminder, the EC50 is the concentration that produces a half-maximal response. As usually defined, the CC50 is the concentration giving 50% cytotoxicity.

The target of data set [1] is T1, Neuropeptide Y receptor type 1 (Homo sapiens, UniProt P25929).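 Note: HEK293 cells with a CNG channel challenged with NPY then isoproterenol; potency as antagonist that reverses NPY suppression of cAMP signal.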
T1 sequence (P25929 whole entry): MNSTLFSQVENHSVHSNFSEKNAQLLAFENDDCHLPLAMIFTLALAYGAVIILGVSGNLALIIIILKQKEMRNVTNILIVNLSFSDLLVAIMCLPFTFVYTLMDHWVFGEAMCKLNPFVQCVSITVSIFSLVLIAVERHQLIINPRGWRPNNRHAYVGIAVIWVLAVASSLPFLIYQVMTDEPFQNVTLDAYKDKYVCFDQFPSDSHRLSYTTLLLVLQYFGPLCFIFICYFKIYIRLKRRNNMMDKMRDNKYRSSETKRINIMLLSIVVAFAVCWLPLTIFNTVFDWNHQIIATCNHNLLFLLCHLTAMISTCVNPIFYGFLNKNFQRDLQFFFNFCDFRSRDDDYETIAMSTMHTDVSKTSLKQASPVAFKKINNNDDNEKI
Format: functional.

Data set [2] concerns the target T2, Neuropeptide Y receptor type 2 (Homo sapiens, UniProt P49146).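 Note: HEK293 cells expressing the receptor and a CNG channel; stimulus was NPY near EC95 followed by isoproterenol to raise cAMP; antagonist potency measured as restoring cAMP signal that NPY suppresses.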
T2 sequence (P49146 whole entry): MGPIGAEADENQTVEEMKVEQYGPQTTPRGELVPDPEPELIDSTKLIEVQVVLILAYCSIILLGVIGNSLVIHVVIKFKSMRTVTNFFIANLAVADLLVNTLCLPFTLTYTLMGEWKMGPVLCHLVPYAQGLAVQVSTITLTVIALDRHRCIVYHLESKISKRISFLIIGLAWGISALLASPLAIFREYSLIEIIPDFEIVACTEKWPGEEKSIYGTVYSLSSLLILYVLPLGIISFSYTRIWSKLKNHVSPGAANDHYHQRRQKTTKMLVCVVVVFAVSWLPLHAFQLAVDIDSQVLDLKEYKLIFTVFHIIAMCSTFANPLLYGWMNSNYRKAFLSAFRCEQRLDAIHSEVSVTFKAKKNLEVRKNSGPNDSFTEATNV
Format: functional, cell-based.

Data set [3] concerns the target T3, Cytochrome P450 3A4 (Homo sapiens, UniProt P08684). The conditions noted are these: Potency.
In data set [4] the target is T4, Cytochrome P450 2C9 (Homo sapiens, UniProt P11712). The conditions noted are these: Potency.
T4 sequence (P11712 whole entry): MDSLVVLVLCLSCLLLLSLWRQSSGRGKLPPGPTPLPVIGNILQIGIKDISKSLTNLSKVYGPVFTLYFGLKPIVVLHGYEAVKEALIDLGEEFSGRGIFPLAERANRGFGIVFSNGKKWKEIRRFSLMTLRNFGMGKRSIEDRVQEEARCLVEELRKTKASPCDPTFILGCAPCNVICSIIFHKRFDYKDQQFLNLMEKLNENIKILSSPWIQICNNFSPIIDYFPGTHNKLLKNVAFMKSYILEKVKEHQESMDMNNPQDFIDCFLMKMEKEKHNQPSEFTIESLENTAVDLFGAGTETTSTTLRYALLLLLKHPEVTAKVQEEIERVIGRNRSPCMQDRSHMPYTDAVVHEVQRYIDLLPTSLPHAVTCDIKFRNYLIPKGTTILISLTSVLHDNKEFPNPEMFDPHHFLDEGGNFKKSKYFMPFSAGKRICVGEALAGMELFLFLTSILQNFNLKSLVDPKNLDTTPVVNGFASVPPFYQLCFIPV
Data set [5] addresses T4, Cytochrome P450 2C9.
The target in data set [6] is T3, Cytochrome P450 3A4.
Data set [7] has as its system Streptococcus sp. 'group A'. The data set is described as follows: Streptococcus pyogenes SK(-)GAS viability under kanamycin – luminescence, BacTiterGlo, confirmation, counter-screen for streptokinase expression inhibitor project, dose response (AID 1900). In kind it is functional, organism-based.
Data set [8] addresses Oxytocin receptor (Homo sapiens, UniProt P30559). The data set is described as follows: Counterscreen for vasopressin 1 receptor (V1R) agonists: Fluorescence-based cell-based high throughput dose response assay for agonists of the Oxytocin Receptor (OXTR). [Related pubchem assays: 2435 (Primary screen (OXTR agonists in singlicate)), 434964 (Confirmation screen (V1R agonists in triplicate)), 434969 (Counterscreen (OXTR agonists in …. In kind it is functional.

Data set [9] concerns the target Vasopressin V1a receptor (Homo sapiens, UniProt P37288). Nature of the data set: Fluorescence-based cell-based high throughput dose response screening assay for agonists of the vasopressin 1 receptor (V1R). In kind it is functional.
The test system of data set [10] is Streptococcus. The data set is described as follows: GAS UMAA2166 growth inhibition – luminescence, BacTiterGlo, counter-screen for streptokinase expression inhibitor project, dose response (AID 1915).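 Note: potency for reduction of bacterial viability or growth.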 Format: functional, organism-based. A general note: The purpose of a counterscreen is to sort out artefacts and off-target activity.
In data set [11] the target is T5, Short transient receptor potential channel 4 (Mus musculus, UniProt Q9QUQ5).
T5 sequence (Q9QUQ5 whole entry): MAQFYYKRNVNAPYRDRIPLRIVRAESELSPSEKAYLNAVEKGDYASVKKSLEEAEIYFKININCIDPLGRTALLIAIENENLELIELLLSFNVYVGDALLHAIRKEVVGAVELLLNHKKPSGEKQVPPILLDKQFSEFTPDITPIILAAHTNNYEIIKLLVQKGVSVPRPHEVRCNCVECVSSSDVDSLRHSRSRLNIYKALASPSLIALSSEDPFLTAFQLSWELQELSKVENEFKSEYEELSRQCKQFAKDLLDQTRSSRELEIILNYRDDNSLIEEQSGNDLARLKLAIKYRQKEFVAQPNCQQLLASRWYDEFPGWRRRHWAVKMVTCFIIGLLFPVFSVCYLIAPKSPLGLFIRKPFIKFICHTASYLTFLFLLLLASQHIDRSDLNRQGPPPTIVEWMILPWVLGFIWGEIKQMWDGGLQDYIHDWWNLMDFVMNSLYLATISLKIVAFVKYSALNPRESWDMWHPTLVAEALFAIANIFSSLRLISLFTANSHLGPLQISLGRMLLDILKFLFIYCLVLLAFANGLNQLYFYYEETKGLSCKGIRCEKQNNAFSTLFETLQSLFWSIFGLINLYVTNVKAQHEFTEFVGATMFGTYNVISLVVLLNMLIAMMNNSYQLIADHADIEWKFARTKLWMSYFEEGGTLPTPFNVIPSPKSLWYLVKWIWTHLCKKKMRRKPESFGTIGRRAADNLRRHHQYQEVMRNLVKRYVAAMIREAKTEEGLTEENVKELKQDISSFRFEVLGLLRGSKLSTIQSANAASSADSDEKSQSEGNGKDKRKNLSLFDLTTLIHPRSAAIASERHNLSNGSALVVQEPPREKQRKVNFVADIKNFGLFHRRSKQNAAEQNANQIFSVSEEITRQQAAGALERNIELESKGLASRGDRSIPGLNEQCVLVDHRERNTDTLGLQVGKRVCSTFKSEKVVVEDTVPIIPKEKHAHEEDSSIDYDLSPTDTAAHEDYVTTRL
The data set is described as follows: calcium entry via TRPC4 opening agents – cell-based, HEK293 TRPC4/mu-opioid, Fluo-4 calcium, dose response (AID 434937). In kind it is functional.

Data set [12] addresses Peroxisome proliferator-activated receptor gamma/Nuclear receptor coactivator 2 (Homo sapiens, UniProt P37231). Format: functional.
In data set [13] the target is Peroxisome proliferator-activated receptor gamma/Nuclear receptor coactivator 1 (Homo sapiens, UniProt P37231). In kind it is functional.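 Note: agonist potency as compounds enhance coactivator SRC-1 recruitment to PPARgamma.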
Chain of Peroxisome proliferator-activated receptor gamma/Nuclear receptor coactivator 1 (P37231 whole entry): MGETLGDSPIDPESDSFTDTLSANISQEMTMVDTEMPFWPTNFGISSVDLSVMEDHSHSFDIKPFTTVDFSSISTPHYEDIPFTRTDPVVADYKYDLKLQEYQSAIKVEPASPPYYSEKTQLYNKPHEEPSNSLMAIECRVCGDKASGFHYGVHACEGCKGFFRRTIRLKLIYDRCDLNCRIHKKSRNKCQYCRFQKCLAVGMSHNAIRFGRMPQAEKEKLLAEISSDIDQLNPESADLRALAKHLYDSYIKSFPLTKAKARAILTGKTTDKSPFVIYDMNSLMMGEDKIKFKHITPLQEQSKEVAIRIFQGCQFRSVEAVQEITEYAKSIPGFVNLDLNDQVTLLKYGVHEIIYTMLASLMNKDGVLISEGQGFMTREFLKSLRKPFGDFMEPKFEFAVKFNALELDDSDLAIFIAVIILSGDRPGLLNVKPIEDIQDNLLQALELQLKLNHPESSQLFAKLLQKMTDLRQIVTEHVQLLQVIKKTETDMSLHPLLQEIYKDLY
Chain of Peroxisome proliferator-activated receptor gamma/Nuclear receptor coactivator 1 (Q15788 whole entry, further chain): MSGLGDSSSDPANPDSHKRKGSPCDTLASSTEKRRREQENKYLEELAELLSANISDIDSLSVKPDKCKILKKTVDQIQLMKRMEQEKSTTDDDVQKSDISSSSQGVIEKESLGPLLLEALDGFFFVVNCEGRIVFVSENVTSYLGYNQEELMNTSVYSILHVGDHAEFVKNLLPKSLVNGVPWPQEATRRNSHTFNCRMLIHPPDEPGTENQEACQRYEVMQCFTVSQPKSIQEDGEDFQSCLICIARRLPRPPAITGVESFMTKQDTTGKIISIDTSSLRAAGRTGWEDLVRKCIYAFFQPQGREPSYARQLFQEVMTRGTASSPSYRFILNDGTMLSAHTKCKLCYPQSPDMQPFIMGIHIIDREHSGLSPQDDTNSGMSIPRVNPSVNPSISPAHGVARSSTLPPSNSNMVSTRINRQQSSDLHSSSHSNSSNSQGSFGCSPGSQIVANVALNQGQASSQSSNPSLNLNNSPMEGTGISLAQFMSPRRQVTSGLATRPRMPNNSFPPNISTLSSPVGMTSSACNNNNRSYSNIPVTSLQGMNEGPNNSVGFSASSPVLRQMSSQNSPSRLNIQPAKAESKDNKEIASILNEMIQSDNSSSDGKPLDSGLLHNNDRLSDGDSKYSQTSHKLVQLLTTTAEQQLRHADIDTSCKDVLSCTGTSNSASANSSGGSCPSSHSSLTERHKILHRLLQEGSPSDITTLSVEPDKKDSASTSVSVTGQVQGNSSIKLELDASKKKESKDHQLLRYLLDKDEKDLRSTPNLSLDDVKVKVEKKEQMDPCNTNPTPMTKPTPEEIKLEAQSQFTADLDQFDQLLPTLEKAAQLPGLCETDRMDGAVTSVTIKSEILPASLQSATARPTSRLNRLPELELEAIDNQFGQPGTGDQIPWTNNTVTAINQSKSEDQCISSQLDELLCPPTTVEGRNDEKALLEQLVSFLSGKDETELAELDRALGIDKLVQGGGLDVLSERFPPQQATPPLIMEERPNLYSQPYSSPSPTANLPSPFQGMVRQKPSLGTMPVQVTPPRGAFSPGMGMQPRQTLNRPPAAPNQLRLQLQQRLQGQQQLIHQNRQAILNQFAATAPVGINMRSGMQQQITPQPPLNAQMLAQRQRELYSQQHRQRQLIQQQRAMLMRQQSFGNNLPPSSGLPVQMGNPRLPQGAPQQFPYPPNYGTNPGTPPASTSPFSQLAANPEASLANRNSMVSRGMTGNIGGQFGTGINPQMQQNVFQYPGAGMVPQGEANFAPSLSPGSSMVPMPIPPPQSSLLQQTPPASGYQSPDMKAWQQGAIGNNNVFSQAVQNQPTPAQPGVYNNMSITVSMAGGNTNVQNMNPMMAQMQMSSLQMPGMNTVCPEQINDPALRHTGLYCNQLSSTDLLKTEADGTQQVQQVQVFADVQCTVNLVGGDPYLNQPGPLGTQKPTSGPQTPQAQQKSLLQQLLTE
In data set [14] the target is Peroxisome proliferator-activated receptor gamma/Nuclear receptor coactivator 3 (Homo sapiens, UniProt P37231). In kind it is functional.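 Note: agonist potency for raising coactivator recruitment to the receptor.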
Data set [15] addresses Estrogen receptor (Homo sapiens, UniProt P03372).
Data set [16] addresses T6, Estrogen receptor beta (Homo sapiens, UniProt Q92731).
Data set [17] deals with Voltage-dependent T-type calcium channel subunit alpha-1H (Homo sapiens, UniProt O95180). In kind it is functional.
Data set [18] can be described thus: A Cell Based Secondary Assay To Explore Cytotoxicity of Compounds that Sensitize Mycobacterium Tuberculosis to Beta-Lactam Antibiotics. Format: functional.
The target in data set [19] is Luciferin 4-monooxygenase (Photinus pyralis, UniProt P08659). The data set is described as follows: Counter Screen for Luciferase-based Assay Positives. [Related pubchem assays: 620, 618, 411 ].
In data set [20] the target is NS3 (Hepatitis C virus, UniProt A3EZJ3). Nature of the data set: PubChem AID 2173. Set-up: species or system Hepacivirus hominis.
Chain of NS3 (A3EZJ3 whole entry): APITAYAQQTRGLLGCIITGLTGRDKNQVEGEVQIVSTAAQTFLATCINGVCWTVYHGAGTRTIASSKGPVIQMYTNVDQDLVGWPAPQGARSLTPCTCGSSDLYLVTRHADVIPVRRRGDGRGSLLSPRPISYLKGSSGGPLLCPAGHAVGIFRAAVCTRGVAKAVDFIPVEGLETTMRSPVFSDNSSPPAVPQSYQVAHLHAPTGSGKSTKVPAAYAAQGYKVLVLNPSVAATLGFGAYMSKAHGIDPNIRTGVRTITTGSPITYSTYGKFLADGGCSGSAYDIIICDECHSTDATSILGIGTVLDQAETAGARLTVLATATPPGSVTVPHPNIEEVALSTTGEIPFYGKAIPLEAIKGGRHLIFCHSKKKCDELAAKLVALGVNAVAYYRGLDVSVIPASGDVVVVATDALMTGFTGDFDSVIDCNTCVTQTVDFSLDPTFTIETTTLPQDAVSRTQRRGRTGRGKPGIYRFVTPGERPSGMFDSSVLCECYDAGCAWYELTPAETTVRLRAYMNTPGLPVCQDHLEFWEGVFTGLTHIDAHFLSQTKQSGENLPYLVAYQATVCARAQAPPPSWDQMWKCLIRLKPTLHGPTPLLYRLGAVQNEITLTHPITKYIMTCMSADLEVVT
Data set [21] has as its system HT-1080. The data set is described as follows: HT1080 cell viability loss – fluorescence readout (AID 620). The conditions noted are these: Homo sapiens. Format: functional, cell-based.
Data set [22] in a line: Luminescence Cell-Based Dose Response HTS to Identify Inhibitors of 5'UTR Stem-Loop Driven Prion Protein mRNA Translation in H4 Neuroglioblastoma Cells. [Related pubchem assays: 1827 (Project Summary), 1813 (Primary HTS)]. In kind it is functional.
Data set [23] is described as follows: alpha-synuclein stem-loop luciferase translation blockers – H4 neuroglioma cells, luminescence, confirmation (AID 1988). Format: functional, cell-based.
Data set [24] deals with T6, Estrogen receptor beta. Nature of the data set: blockers of SRC-3 recruitment to ERβ – biochemical, ELISA, streptavidin-HRP readout, orthogonal assay, confirmation (AID 1060).
The target of data set [25] is T7, Calpain-2 catalytic subunit (Sus scrofa, UniProt P43367).
T7 sequence (P43367 whole entry): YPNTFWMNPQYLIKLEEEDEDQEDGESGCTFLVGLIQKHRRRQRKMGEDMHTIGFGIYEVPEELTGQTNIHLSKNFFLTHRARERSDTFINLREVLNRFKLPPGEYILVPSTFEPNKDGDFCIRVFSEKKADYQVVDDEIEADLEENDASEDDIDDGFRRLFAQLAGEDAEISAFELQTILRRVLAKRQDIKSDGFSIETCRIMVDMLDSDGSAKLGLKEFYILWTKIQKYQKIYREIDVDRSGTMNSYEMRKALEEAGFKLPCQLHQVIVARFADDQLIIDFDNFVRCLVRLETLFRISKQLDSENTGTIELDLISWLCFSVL
The data set is described as follows: m-calpain protease blockers, concentration series – biochemical, fluorogenic peptide substrate, dose response (AID 1420). Format: functional.

Data set [26] in a line: Trypanosoma cruzi growth suppression in host cells – NIH3T3 host cells, beta-gal luminescence, confirmation (AID 2044).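 Note: intracellular parasites grown in NIH/3T3 mouse fibroblasts as host cells; luminescent beta-galactosidase reporter signal from transgenic T. cruzi replicating inside host cells; inhibitors lower the luminescence signal.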 Format: functional, cell-based.
In data set [27] the target is Protein-tyrosine kinase 2-beta (Homo sapiens, UniProt Q14289).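 Note: potency of inhibitors of PYK2 kinase phosphorylation of poly-GT substrate.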
Data set [28] in a line: NIH3T3 cell viability loss – ATP luminescence, mouse fibroblasts, counter-screen, dose response (AID 2010).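 Note: cells exposed to compound for about 90 hours before reading.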 Format: functional, cell-based.
In data set [29] the target is 26S proteasome non-ATPase regulatory subunit 14 (Homo sapiens, UniProt O00487). The data set is described as follows: inhibition of proteasome subunit RPN11 – biochemical, fluorescence polarization, uHTS hits, confirmation (AID 602368). Format: functional. On the technique in general: In fluorescence polarisation assays a small probe gives low polarisation when free and higher when bound to something large.
Chain of 26S proteasome non-ATPase regulatory subunit 14 (O00487 whole entry): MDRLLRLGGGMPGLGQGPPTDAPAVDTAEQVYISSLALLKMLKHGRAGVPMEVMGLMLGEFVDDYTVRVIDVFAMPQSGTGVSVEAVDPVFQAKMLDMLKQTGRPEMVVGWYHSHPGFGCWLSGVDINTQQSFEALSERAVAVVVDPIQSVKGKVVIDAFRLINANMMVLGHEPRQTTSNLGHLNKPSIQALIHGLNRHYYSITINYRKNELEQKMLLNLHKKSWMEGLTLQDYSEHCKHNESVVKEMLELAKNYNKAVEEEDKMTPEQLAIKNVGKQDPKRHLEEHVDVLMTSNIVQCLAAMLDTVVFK

The target of data set [30] is 72 kDa type IV collagenase (Homo sapiens, UniProt P08253). Nature of the data set: Dose Response validation of uHTS RPN11 inhibitor hits using a MMP-2 Fluorescence assay. Format: functional.
Data set [31] deals with Prothrombin (Bos taurus, UniProt P00735). Nature of the data set: thrombin protease inhibitors – biochemical, fluorescence polarization, uHTS hits, dose response (AID 602369). In kind it is functional.
Data set [32] is described as follows: cells.

T6 sequence (Q92731 whole entry): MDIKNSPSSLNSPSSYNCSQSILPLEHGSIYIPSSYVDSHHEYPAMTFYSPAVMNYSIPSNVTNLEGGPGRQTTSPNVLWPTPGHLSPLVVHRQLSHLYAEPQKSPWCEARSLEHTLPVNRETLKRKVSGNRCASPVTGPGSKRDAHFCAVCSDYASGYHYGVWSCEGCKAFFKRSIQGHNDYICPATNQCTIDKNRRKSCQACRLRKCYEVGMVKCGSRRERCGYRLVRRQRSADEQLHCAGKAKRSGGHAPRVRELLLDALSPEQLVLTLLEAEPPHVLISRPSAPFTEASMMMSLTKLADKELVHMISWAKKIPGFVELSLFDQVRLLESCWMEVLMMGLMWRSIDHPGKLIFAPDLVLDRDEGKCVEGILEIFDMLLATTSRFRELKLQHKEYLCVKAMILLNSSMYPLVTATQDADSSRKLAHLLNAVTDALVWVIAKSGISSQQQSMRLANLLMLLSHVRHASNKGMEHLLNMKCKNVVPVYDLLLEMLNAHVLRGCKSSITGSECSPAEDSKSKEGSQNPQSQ
Chain of Estrogen receptor (P03372 whole entry): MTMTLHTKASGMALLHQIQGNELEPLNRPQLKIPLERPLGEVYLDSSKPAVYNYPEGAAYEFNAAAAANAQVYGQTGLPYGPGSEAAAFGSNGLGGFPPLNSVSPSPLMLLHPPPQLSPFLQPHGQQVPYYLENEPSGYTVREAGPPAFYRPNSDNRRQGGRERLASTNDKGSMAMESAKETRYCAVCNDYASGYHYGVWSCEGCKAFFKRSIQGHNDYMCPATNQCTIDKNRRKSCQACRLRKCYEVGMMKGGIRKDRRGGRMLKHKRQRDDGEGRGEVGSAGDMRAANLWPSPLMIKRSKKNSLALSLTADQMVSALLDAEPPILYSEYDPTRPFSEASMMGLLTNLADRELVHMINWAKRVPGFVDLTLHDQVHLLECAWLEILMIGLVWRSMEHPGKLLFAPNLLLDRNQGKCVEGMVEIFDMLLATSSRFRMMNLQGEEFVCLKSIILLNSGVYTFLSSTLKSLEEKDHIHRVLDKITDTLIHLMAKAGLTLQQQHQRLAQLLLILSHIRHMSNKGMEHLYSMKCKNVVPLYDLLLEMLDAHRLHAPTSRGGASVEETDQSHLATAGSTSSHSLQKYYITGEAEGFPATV
T3 sequence (P08684 whole entry): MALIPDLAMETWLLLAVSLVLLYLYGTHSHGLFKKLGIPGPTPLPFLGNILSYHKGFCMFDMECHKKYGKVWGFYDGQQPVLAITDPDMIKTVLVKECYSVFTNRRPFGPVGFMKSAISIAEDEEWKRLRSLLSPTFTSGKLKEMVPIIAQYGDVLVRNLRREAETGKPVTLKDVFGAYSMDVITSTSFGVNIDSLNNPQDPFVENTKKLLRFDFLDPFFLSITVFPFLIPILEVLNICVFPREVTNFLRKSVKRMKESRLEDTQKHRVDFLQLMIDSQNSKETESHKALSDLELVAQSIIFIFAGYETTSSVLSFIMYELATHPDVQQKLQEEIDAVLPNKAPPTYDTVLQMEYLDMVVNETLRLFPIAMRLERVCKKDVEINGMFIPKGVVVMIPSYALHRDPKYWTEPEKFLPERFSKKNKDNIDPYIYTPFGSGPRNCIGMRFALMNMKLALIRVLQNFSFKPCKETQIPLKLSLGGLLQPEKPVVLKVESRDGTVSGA

With `CCN(CC)CC(O)COc1ccc2c(c1)c(C(C)=O)c(C)n2-c1ccccc1` (stereo not drawn), the figures for the IC50 in data set [1] and in [2] were 4.37 µM (active) and 6.95 µM (active), respectively.

For `COc1cc2c(cc1O)-c1c(O)c(OC)cc3c1[C@H](C2)N(C)CC3`, the AC50 in data set [3] is 20 µM (inconclusive); in data set [4], 31.6 µM (inconclusive).

On to `CC(=O)[C@@H]1CC[C@@H]2[C@@H]3CCC4=CC(=O)CC[C@@]4(C)[C@H]3CC[C@]21C`, for which the values for the concentration at half-maximal activity (AC50) in [4], in data set [5] and in [6] were 39.8 µM (inconclusive), 15.8 µM (inconclusive) and “inconclusive”, respectively.

With `O=c1c2cc(Br)ccc2nc(-c2cccc(Cl)c2)n1O`, the half-maximal effective concentration (EC50) in data set [7] is 1.13 µM (active); in data set [8] it was > 9.97 µM (active); in data set [9], 6.68 µM (active); in data set [10], 2.86 µM (active); in [11], 9.44 µM (active).

Regarding `COc1ccc(CCN(Cc2nc(O)c3ccccc3n2)C(=O)c2ccco2)cc1OC`, the half-maximal effective concentration (EC50) in data set [12], in data set [13] and in data set [14] was > 79.4 µM (not active) throughout.

In the case of `O=C(c1cc(-c2ccco2)on1)N1CCc2ccccc2C1`, the IC50 in [15] was 32.5 µM (not active); in [16], > 50 µM (not active).

As for `O=S(=O)(Nc1ccc(S(=O)(=O)N2CCCCC2)cc1)c1ccc(Br)s1`, the 50% effective concentration (EC50) in data set [17] was 3.58 µM (active).

For `COc1ccc(-c2cc(-c3cccs3)c(C#N)c(SCC(=O)NCc3ccccc3)n2)cc1`, the EC50 in [12] is 14.2 µM (not active); in data set [13], 18.8 µM (not active); in [14], 22.2 µM (not active).

Regarding `COc1ccc(C(=O)Nc2oc(-c3ccccc3)c(-c3ccccc3)c2C#N)cc1OC`, in data set [18], the half-maximal cytotoxic concentration (CC50) was > 40 µM (active).

In the case of `CC(C)c1ccc(-c2nnn(Cc3nc4ccccc4s3)n2)cc1`, the IC50 in data set [1] is 5.68 µM (active); in data set [2], 4.61 µM (active).

Consider `CCc1cc2c(=O)n(Cc3ccco3)c(SCc3c(C)noc3C)nc2s1`, for which the concentration for a half-maximal effect (EC50) in [19] was 0.34 µM (active); in data set [21], 15.3 µM (active). For the same compound, in data set [20], the IC50 is reported as 25.6 µM (not active).

Turning to `CCCNC(=O)c1ccc(-c2nc3ccccc3s2)s1`, the results for the concentration for a half-maximal effect (EC50) in data set [22] and in [23] were 10.7 µM (inconclusive) and 7.23 µM (active), respectively. In addition, the half-maximal inhibitory concentration (IC50) in [15] is on record as 30.3 µM (not active); in data set [16] it was > 50 µM (not active); in [24] it was 102 µM (not active).

As to `O=[N+]([O-])c1cc(C(F)(F)F)ccc1NCCc1c[nH]c2ccc(O)cc12`, the 50% cytotoxic concentration (CC50) in data set [18] is > 40 µM (active). Besides, the concentration for half-maximal inhibition (IC50) in data set [25] is given as 7.48 µM (not active).

Regarding `COC(=O)c1[nH]c2ccc(C)cc2c1NC(=O)CN1CCCc2ccccc21`, the EC50 in data set [26] was < 0.1 µM (active); in data set [28], > 60 µM (not active); in [32], 0.639 µM (active). Moreover, the IC50 is < 1.56 µM (active) in data set [16]; 1.03 µM (not active) in data set [24]; 15.2 µM (not active) in data set [27]; 16.7 µM (active) in data set [29]; > 100 µM (inactive) in [30]; > 100 µM (inactive) in data set [31].
